≈ marks a conversion by molar mass, not a printed value. Where two headings read alike, the source gives them in different places.
Tests used:
Ent. cloacae MA2646 = assay: in vitro antibacterial activity, microtitration dilution (MIC), Ent. cloacae MA2646; assay type: cell-based; conditions: Enterobacter cloacae, read-out: minimum inhibiting concentration (MIC)
In short: (§1)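 Antibacterial potency was assessed in vitro using a microtitration dilution procedure, with results given as MIC in μg/mL.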

Esch. coli Vogel [1] = assay: in vitro antibacterial activity, microtitration dilution (MIC), Esch. coli Vogel; assay type: cell-based; conditions: Escherichia coli, read-out: minimum inhibiting concentration (MIC)
In short: as §1

Klebs. pneumoniae MGH-2 = assay: in vitro antibacterial activity, microtitration dilution (MIC), Klebs. pneumoniae MGH-2; assay type: cell-based; conditions: Klebsiella pneumoniae, MGH2, read-out: minimum inhibiting concentration (MIC)
In short: as §1

Prot. rettgeri M 1771 = assay: in vitro antibacterial activity, microtitration dilution (MIC), Prot. rettgeri M 1771; assay type: cell-based; conditions: Providencia rettgeri, M1771, read-out: minimum inhibiting concentration (MIC)
In short: as §1

Pseud. aeruginosa UI-18 [2] = assay: in vitro antibacterial activity, microtitration dilution (MIC), Pseud. aeruginosa UI-18; assay type: cell-based; conditions: Pseudomonas aeruginosa, UI18, read-out: minimum inhibiting concentration (MIC)
In short: as §1

Staph. aureus H 228 = assay: in vitro antibacterial activity, microtitration dilution (MIC), Staph. aureus H 228; assay type: cell-based; conditions: Staphylococcus aureus, H228, read-out: minimum inhibiting concentration (MIC)
In short: as §1

Staph. aureus UC-76 = assay: in vitro antibacterial activity, microtitration dilution (MIC), Staph. aureus UC-76; assay type: cell-based; conditions: Staphylococcus aureus, UC76, read-out: minimum inhibiting concentration (MIC)
In short: as §1

Strep. faecalis MGH-2 = assay: in vitro antibacterial activity, microtitration dilution (MIC), Strep. faecalis MGH-2; assay type: cell-based; conditions: Enterococcus faecalis, MGH2, read-out: minimum inhibiting concentration (MIC)
In short: as §1

Strep. pheumoniae SV-1 [3] = assay: in vitro antibacterial activity, microtitration dilution (MIC), Strep. pneumoniae SV-1; assay type: cell-based; conditions: Streptococcus pneumoniae, SV1, read-out: minimum inhibiting concentration (MIC)
In short: as §1

Strep. pyogenes C-203 [4] = assay: in vitro antibacterial activity, microtitration dilution (MIC), Strep. pyogenes C-203; assay type: cell-based; conditions: Streptococcus pyogenes, C203, read-out: minimum inhibiting concentration (MIC)
In short: as §1

Esch. coli Vogel [5] = assay: median protective dose in mice given lethal systemic infections, Esch. coli Vogel; assay type: in vivo; conditions: Escherichia coli, single dose at time of challenge, read-out: median protective dose (PD50)
Procedure: (§2) The in vivo activity is obtained when the compounds are tested according to the procedure of Miller, et al (Proc. Soc. Exp. Biol. Med. 57, 261, 1944). The median protective dose (PD50) was determined in mice given lethal systemic infections. Single doses of compound were given at time of challenge.
(§3) By use of the above methods, the following minimum inhibiting concentration values (MICs in μg/mL), PD50 's in mg/kg, no effect phototoxicity dose in mg/kg and the cytotoxicity IC50 in μg/mL were obtained for representative enantiomers of the invention and compounds of the prior art as shown in the table.
(§4) The in vivo data as PD50 s are reported below the line of MICs for the same compound.

Pseud. aeruginosa UI-18 [6] = assay: median protective dose in mice given lethal systemic infections, Pseud. aeruginosa UI-18; assay type: in vivo; conditions: Pseudomonas aeruginosa, single dose at time of challenge, read-out: median protective dose (PD50)
Procedure: as §2, §3, §4

Strep. pheumoniae SV-1 [7] = assay: median protective dose in mice given lethal systemic infections, Strep. pneumoniae SV-1; assay type: in vivo; conditions: Streptococcus pneumoniae, single dose at time of challenge, read-out: median protective dose (PD50)
Procedure: as §2, §3, §4

in vivo = assay: in vivo; set-up: species or system mice; conditions: mouse, po
Procedure: The phototoxicity data is obtained using depilated mice. The compound was administered orally each day for four successive days, followed each day by 3 hours of UVA radiation. The mice were examined for any positive signs (redness, erythema) relative to control animals. The no effect dose and the 50% effect dose were determined. By use of the above methods, the following minimum inhibiting concentration values (MICs in μg/mL), PD50 's in mg/kg, no effect phototoxicity dose in mg/kg and the cytotoxicity IC50 in μg/mL were obtained for representative enantiomers of the invention and compounds of the prior art as shown in the table.

[8] = cytotoxicity, hamster V-79 cells, colony reduction; assay type: cell-based; conditions: 3 hours treatment, colonies counted after 5 days, read-out: Cytotox (cytotoxicity IC50)
Procedure: The cytotoxicity data is obtained using hamster V-79 cells. The cells were suspended in tissue culture medium and grown overnight. Cells were treated with drug for 3 hours, washed free of drug and then replated, and the colonies counted after 5 days. The concentration of drug that reduced colones by 50% relative to control was recorded.
as §3

Strep. pyogenes C-203 [9] = assay: median protective dose in mice given lethal systemic infections, Strep. pyogenes C-203; assay type: in vivo; conditions: Streptococcus pyogenes, single dose at time of challenge, read-out: median protective dose (PD50)
In short: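 Mice given lethal systemic infections received single compound doses at time of challenge; PD50 (mg/kg) is the median protective dose.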

| SMILES | MIC (Ent. cloacae MA2646) [µg/mL] | MIC (Esch. coli Vogel [1]) [µg/mL] | MIC (Klebs. pneumoniae MGH-2) [µg/mL] | MIC (Prot. rettgeri M 1771) [µg/mL] | MIC (Pseud. aeruginosa UI-18 [2]) [µg/mL] | MIC (Staph. aureus H 228) [µg/mL] | MIC (Staph. aureus UC-76) [µg/mL] | MIC (Strep. faecalis MGH-2) [µg/mL] | MIC (Strep. pheumoniae SV-1 [3]) [µg/mL] | MIC (Strep. pyogenes C-203 [4]) [µg/mL] | ED50 (Esch. coli Vogel [5]; PO) [mg/kg] | ED50 (Esch. coli Vogel [5]; SC) [mg/kg] | ED50 (Pseud. aeruginosa UI-18 [6]; UI18, PO) [mg/kg] | ED50 (Pseud. aeruginosa UI-18 [6]; UI18, SC) [mg/kg] | ED50 (Strep. pheumoniae SV-1 [7]; SV1, PO) [mg/kg] | ED50 (Strep. pheumoniae SV-1 [7]; SV1, SC) [mg/kg] | NOAEL at 96 h (in vivo) [mg/kg] | CC50 at 3 h [8] [µg/mL] | ED50 (Strep. pyogenes C-203 [9]; C203, PO) [mg/kg] | ED50 (Strep. pyogenes C-203 [9]; C203, SC) [mg/kg] |
| --- | --- | --- | --- | --- | --- | --- | --- | --- | --- | --- | --- | --- | --- | --- | --- | --- | --- | --- | --- | --- |
| C[C@@H](N)[C@H]1CCN(c2nc3c(cc2F)c(=O)c(C(=O)O)cn3C2CC2)C1 [Example 5, 3S,1R-1-cyclopropyl-6-fluoro-7-[3-(1-aminoethyl)-1-pyrrolidinyl]-1,4-dihydro-4-oxo-1,8-naphthyridine-3-carboxylic acid] | 0.05 (≈ 0.139 µM) | 0.05 (≈ 0.139 µM) | 0.1 (≈ 0.277 µM) | 0.2 (≈ 0.555 µM) | 0.8 (≈ 2.22 µM) | 0.2 (≈ 0.555 µM) | 0.025 (≈ 0.0694 µM) | 0.1 (≈ 0.277 µM) | 0.05 (≈ 0.139 µM) | 0.05 (≈ 0.139 µM) | 4 | 1 | 23 | 16 | 15 | 7 | > 100 | 84 (≈ 233 µM) | – | – |
| C[C@H](N)[C@H]1CCN(c2nc3c(cc2F)c(=O)c(C(=O)O)cn3C2CC2)C1 [Example 6, 3S,1S-1-cyclopropyl-6-fluoro-7-[3-(1-aminoethyl)-1-pyrrolidinyl]-1,4-dihydro-4-oxo-1,8-naphthyridine-3-carboxylic acid] | 0.05 (≈ 0.139 µM) | 0.05 (≈ 0.139 µM) | 0.2 (≈ 0.555 µM) | 0.4 (≈ 1.11 µM) | 1.6 (≈ 4.44 µM) | 0.2 (≈ 0.555 µM) | 0.025 (≈ 0.0694 µM) | 0.1 (≈ 0.277 µM) | 0.05 (≈ 0.139 µM) | 0.05 (≈ 0.139 µM) | 8 | 1 | 96 | 25 | 28 | 10 | > 100 | 77 (≈ 214 µM) | – | – |
| C[C@H]([C@@H]1CCN(c2nc3c(cc2F)c(=O)c(C(=O)O)cn3C2CC2)C1)N(C)C [Example 72, 3R,1R-1-cyclopropyl-7-[3-[1-(dimethylamino)ethyl]-1-pyrrolidinyl]-6-fluoro-1,4,-dihydro-4-oxo-1,8-naphthyridine-3-carboxylic acid] | 0.2 (≈ 0.515 µM) | 0.1 (≈ 0.257 µM) | 0.2 (≈ 0.515 µM) | 0.8 (≈ 2.06 µM) | 1.6 (≈ 4.12 µM) | 0.025 (≈ 0.0644 µM) | 0.025 (≈ 0.0644 µM) | 0.1 (≈ 0.257 µM) | 0.025 (≈ 0.0644 µM) | 0.05 (≈ 0.129 µM) | 1 | 1 | 17 | 11 | 2 | 2 | < 30 | 120 (≈ 309 µM) | 2 | 2 |
| C[C@H](N)[C@@H]1CCN(c2nc3c(cc2F)c(=O)c(C(=O)O)cn3C2CC2)C1 [Example 7, 3R,1S-1-cyclopropyl-6-fluoro-7-[3-(1-aminoethyl)-1-pyrrolidinyl]-1,4-dihydro-4-oxo-1,8-naphthyridine-3-carboxylic acid] | 0.025 (≈ 0.0694 µM) | 0.025 (≈ 0.0694 µM) | 0.05 (≈ 0.139 µM) | 0.1 (≈ 0.277 µM) | 0.4 (≈ 1.11 µM) | 0.025 (≈ 0.0694 µM) | – | 0.025 (≈ 0.0694 µM) | 0.006 (≈ 0.0166 µM) | 0.013 (≈ 0.0361 µM) | 2 | 0.4 | 15 | 4 | 3 | 1 | 30 | 33 (≈ 91.6 µM) | 3 | 1 |

From patent publication US5563155A, “Individual stereosiomers of 7-[3-(aminoalkyl)-1-pyrrolidinyl]-quinolones and naphthyridones as antibacterial agents” (Warner-Lambert Company, priority 1995, dated 1996)
